Test results as given in patent US20090041897A1, “Transparent, concentrated liquid nutritional supplement composition” (priority 2007, published 2009).

How the values were obtained:
[1] = general statement in the description; cited from earlier work
[2] = solubility, turbidity and stability of ingredients in water; type: physicochemical; details: minerals considered for the concentrate
Procedure: Each ingredient or nutrient is evaluated at suitable concentration (based on actual usage level) in 100 ml deionized water enclosed in glass bottle and checked for turbidity. Only non turbidity producing materials (estimated at 25 NTU or less) were selected. Visual evaluation also conducted to ensure clear liquids are obtained. Solutions with an estimated 30 NTG and above are eliminated as potential ingredients. Bottles were also checked for precipitated solids at 0, 2, 4, 6, 8, 10 and 24 hours at room temperature. If precipitate is observed, the ingredient/nutrient is rendered unusable for producing appealing liquid nutritional supplement. Furthermore, ingredients are evaluated in a final diluted liquid nutritional supplement and/or diluents to ensure that dilution will not change the physical appearance of concentrates. […] Insoluble materials are excluded from the formulation. Saturation point is also observed for each ingredient/nutrient to ensure that no precipitation will occur. […] Each ingredient or nutrient is evaluated at suitable concentration (based on actual usage level) in 100 ml deionized water enclosed in glass bottle and checked turbidity. […] Furthermore, ingredients are evaluated in a final diluted liquid nutritional supplement to ensure that dilution will not change the physical appearance of concentrates. […]

N[C@H]1C(O)O[C@H](CO)[C@@H](O)[C@@H]1O (some centres unmarked) [Glucosamine]
solubility in water [1]: water-soluble

CS(C)(=O)=O [MSM, Methyl-Sulfonyl-Methane]
solubility in water [1]: readily water soluble

O=C1O[C@H]([C@@H](O)CO)C(O)=C1O [Vitamin C, Ascorbic Acid]
stability in water [1]: degrades in water in fast fashion

[Mg+2] [magnesium]
effect on clarity of concentrate and finished liquid nutritional supplement [2]: induce cloudiness and turbidity
solubility [2]: not soluble

Chondroitin sulfate
solubility in water [1]: soluble in water

Gelatin
solubility in water [1]: soluble only in hot water

Hydrolyzed Collagen
solubility in water [1]: readily water soluble
